Source: ChEMBL document CHEMBL4842386, “Discovery of Reldesemtiv, a Fast Skeletal Muscle Troponin Activator for the Treatment of Impaired Muscle Function” (J Med Chem, 2021)
≈ marks a conversion by molar mass, not a printed value. Calls of active or inactive are those of the source. The calls are words filed in the database; no cut-off is given here.

Key:
Psoas muscle [1] = test: Activation of fast twitch skeletal muscle in rabbit psoas muscle myofibrils by measuring increase in myofibril ATPase activity at 25% calcium concentration; type: functional; details: Oryctolagus cuniculus
[2] = Metabolic stability in human liver microsomes assessed as intrinsic clearance measured after 90 mins by HPLC/MS/MS analysis; type: ADME, Microsome; details: read-out: CLH
Psoas muscle [3] = test: Increase in psoas muscle force in rabbit skinned single fiber preparation at a calcium concentration that produces a force increase that is 25% of the maximum response in a control preparation by skinned fast skeletal muscle fiber assay; type: functional; details: Oryctolagus cuniculus
[4] = biological target: Voltage-gated inwardly rectifying potassium channel KCNH2 (Homo sapiens, UniProt Q12809); test: Inhibition of human ERG expressed in HEK293 cells at -80 mV holding potential by patch clamp assay; type: cell-based
Chain of Voltage-gated inwardly rectifying potassium channel KCNH2 (Q12809 whole entry): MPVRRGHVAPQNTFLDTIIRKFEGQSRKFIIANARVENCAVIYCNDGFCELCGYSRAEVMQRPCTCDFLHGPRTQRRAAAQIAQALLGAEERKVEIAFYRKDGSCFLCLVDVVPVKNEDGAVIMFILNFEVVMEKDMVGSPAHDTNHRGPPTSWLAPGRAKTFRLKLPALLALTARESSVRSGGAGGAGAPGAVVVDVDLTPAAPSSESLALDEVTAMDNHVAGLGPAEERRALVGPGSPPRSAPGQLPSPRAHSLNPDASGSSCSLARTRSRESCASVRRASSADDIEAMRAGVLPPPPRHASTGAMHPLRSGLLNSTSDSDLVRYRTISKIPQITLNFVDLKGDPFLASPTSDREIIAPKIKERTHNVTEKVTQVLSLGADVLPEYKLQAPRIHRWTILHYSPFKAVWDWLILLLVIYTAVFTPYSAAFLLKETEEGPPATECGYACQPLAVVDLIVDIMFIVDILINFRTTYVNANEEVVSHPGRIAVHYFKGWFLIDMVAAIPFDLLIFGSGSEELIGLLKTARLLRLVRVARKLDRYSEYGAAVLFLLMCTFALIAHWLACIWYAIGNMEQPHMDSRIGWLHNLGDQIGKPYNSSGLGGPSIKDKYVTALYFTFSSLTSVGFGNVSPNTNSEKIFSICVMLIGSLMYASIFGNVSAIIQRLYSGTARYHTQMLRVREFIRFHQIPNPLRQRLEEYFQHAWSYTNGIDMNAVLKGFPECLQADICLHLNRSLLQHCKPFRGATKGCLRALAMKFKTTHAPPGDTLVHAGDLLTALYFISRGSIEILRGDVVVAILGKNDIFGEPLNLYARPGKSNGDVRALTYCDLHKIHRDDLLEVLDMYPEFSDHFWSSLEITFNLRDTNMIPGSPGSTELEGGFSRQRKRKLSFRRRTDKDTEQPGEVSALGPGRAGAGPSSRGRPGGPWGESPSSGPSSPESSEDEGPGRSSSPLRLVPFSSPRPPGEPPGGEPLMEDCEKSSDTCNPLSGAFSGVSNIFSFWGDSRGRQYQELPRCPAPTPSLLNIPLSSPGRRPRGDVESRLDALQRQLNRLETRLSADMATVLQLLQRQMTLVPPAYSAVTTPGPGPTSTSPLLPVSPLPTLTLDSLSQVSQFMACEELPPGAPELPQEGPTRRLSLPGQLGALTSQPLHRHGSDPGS

[5] = Thermodynamic solubility of the compound; type: physicochemical; details: read-out: Therm_solubility
[6] = biological target: T1, Nuclear receptor subfamily 1 group I member 2 (Homo sapiens, UniProt O75469); test: Transactivation of human PXR transfected in DPX2 cells assessed as CYP3A4 induction at 10 uM by luciferase reporter gene assay; type: ADME, cell-based; details: dpx2, 10 µM
T1 sequence (O75469 whole entry): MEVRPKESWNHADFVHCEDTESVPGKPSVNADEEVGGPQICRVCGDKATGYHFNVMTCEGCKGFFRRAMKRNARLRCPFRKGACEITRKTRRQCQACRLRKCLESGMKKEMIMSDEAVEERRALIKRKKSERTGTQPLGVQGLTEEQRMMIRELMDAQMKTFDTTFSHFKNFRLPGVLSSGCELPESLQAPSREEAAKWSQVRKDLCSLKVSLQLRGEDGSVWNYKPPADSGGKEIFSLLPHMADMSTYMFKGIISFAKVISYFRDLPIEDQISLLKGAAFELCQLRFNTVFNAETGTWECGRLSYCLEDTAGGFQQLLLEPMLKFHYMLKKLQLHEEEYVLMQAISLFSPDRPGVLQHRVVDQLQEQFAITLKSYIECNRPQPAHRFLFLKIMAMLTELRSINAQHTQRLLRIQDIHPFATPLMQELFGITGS

[7] = Metabolic stability in male rat liver microsomes assessed as intrinsic clearance measured after 90 mins by HPLC/MS/MS analysis; type: ADME, Microsome; details: read-out: CLH
[8] = Clearance in male Sprague-Dawley rat at 1 mg/kg, po administered as single dose measured up to 24 hrs by HPLC analysis; type: ADME, organism-based; details: in vivo
[9] = Plasma protein binding in male rat assessed as unbound fraction; type: ADME, cell-free
hERG (KCNH2) = hERG (KCNH2) (Homo sapiens, UniProt Q12809); test: Displacement of [3H]astemizole from human ERG expressed in HEK293 cells at 100 uM relative to control; type: cell-based; details: HEK293 cells that express hERG, probe [3H]astemizole
Chain of hERG (KCNH2) (Q12809 whole entry): as the sequence (Q12809 whole entry) above

[10] = Intrinsic clearance in male rat hepatocytes; type: ADME, cell-based, Hepatocyte; details: read-out: CLH
[11] = Volume of distribution at steady state in male Sprague-Dawley rat at 1 mg/kg, po administered as single dose measured up to 24 hrs by HPLC analysis; type: ADME, organism-based; details: in vivo
[12] = Oral bioavailability in male Sprague-Dawley rat at 1 mg/kg administered as single dose measured up to 24 hrs by HPLC analysis; type: ADME, organism-based; details: in vivo
[13] = Clearance in male Sprague-Dawley rat at 3 mg/kg, po administered as single dose measured up to 24 hrs by HPLC analysis; type: ADME, organism-based; details: in vivo
[14] = Volume of distribution at steady state in male Sprague-Dawley rat at 3 mg/kg, po administered as single dose measured up to 24 hrs by HPLC analysis; type: ADME, organism-based; details: in vivo
[15] = Drug distribution in Sprague-Dawley rat Soleus muscle to blood ratio at 100 mg/kg, po by HPLC analysis; type: ADME, organism-based
[16] = Drug distribution in Sprague-Dawley rat brain to blood ratio at 100 mg/kg, po by HPLC analysis; type: ADME, organism-based
[17] = Drug distribution in Sprague-Dawley rat plasma to blood ratio at 100 mg/kg, po by HPLC analysis; type: ADME, organism-based; details: in vivo
[18] = Drug distribution in Sprague-Dawley rat extensor digitorum longus to blood ratio at 100 mg/kg, po by HPLC analysis; type: ADME, organism-based
[19] = Efflux ratio of apparent permeability in human Caco-2 cells; type: ADME, cell-based
[20] = system: Extensor digitorum longus; test: Increase in muscle tension in rat extensor digitorum longus muscle rat model assessed as free plasma concentration to increase muscle tension at subtetanic nerve stimulation rate of 30 Hz; type: functional, tissue-based

SMILES	EC40 (Psoas muscle [1])	CLint scaled [2]	EC30 (Psoas muscle [3])	further results
CC(C)(CNc1ncns1)c1ccc(F)cc1	8400 nM	30 mL/min/kg		
CC(C)(CNc1cnc(-c2cccc(C(N)=O)c2)cn1)c1ccc(F)cc1	800 nM		inactive	
NC(=O)c1cnn(-c2cnc(NC[C@]3(c4ncccc4F)C[C@H](F)C3)nc2)c1	1200 nM	< 14 mL/min/kg	3300 nM	
CC(C)(CNc1ncc(-c2cccc(C(N)=O)c2)cn1)c1ccc(F)cc1	8700 nM	6 mL/min/kg	7800 nM	
NC(=O)c1cnc(-c2ccc(NCC3(c4ncccc4F)CCC3)nn2)s1	100 nM		400 nM	IC50 [4]: > 100000 nM
CC(CNc1nc(Cc2ccc(F)cc2)ns1)c1ccc(Cl)cc1 (configuration not stated)	1100 nM		16700 nM	solubility thermodynamic [5]: < 27 µM
CC(C)(CNc1nc(-c2ccccc2)ns1)c1ccc(F)cc1	8900 nM			
CC(C)(CNc1ccc(-c2cccc(C(N)=O)c2)nn1)c1ccc(F)cc1	1200 nM	8 mL/min/kg	3000 nM	solubility thermodynamic [5]: 86 µM (≈ 31.3 µg/mL)
CC(C)(CNc1nc(-c2ccc(C(N)=O)cc2)ns1)c1ccc(F)cc1	500 nM	9 mL/min/kg	2300 nM	solubility thermodynamic [5]: < 27 µM
Fc1ccc(CCNc2nc(Cc3ccc(F)cc3)ns2)cc1	9900 nM			
NC(=O)c1cccc(-c2ccc(NCC3(c4ccc(F)cc4)CCC3)nn2)c1	200 nM	15 mL/min/kg	600 nM	
CN(C)C(=O)c1cnn(-c2ccc(NCC3(c4ncccc4F)CCC3)nn2)c1	20200 nM			
NC(=O)c1ccn(-c2ccc(NCC3(c4ncccc4F)CCC3)nn2)n1	22700 nM			
NC(=O)c1ccn(-c2ccc(NCC3(c4ncccc4F)CCC3)nn2)c1	900 nM	< 14 mL/min/kg	1100 nM	Activity [6]: 43%; CLint scaled [7]: 26 mL/min/kg; CL/F [8]: 73 mL/min/kg; fraction unbound [9]: 0.35; inhibition at 100 µM (hERG (KCNH2)): 27%; CLint scaled [10]: 207 mL/min/kg; IC50 [4]: 97000 nM; Vdss [11]: 2.4 L/kg
Fc1ccc(Cc2nsc(NCCc3ccccc3)n2)cc1	23300 nM			
NC(=O)c1cnn(-c2ccc(NCC3(c4ncccc4F)CCC3)nn2)c1	500 nM	< 14 mL/min/kg	700 nM	CLint scaled [7]: 30 mL/min/kg; CL/F [8]: 136 mL/min/kg; fraction unbound [9]: 0.42; inhibition at 100 µM (hERG (KCNH2)): 19%; CLint scaled [10]: 378 mL/min/kg; IC50 [4]: > 100000 nM; bioavailability [12]: 12%; Vdss [11]: 2.2 L/kg
CN(C)C(=O)c1cccc(-c2nsc(NCC(C)(C)c3ccc(F)cc3)n2)c1	2900 nM		3100 nM	
Fc1ccc(Cc2nsc(NCCc3ccc(Cl)cc3)n2)cc1	4300 nM		13700 nM	
COCCCc1nsc(NCC(C)(C)c2ccc(F)cc2)n1	2500 nM			
CC(C)(CNc1nc(Cc2ccc(F)cc2)ns1)c1ccc(Cl)cc1	600 nM		7400 nM	

SMILES	EC40 (Psoas muscle [1])	CLint scaled [2]	EC30 (Psoas muscle [3])	further results
NC(=O)c1cnn(-c2ccc(NC[C@]3(c4ncccc4F)C[C@H](F)C3)nn2)c1	800 nM	< 14 mL/min/kg	1100 nM	Activity [6]: 7%; CLint scaled [7]: 30 mL/min/kg; CL/F [8]: 115 mL/min/kg; fraction unbound [9]: 0.55; inhibition at 100 µM (hERG (KCNH2)): 16%; CLint scaled [10]: 90 mL/min/kg; Vdss [11]: 2.6 L/kg
NC(=O)c1cnc(-c2ccc(NCC3(c4ncccc4F)CCC3)nn2)o1	3900 nM		5400 nM	
NC(=O)c1cccc(-c2ccc(NCC3(c4ccc(F)cn4)CCC3)nn2)c1	3500 nM	< 7 mL/min/kg	2300 nM	
CC(C)(CNc1nc(-c2cccc(C(N)=O)c2)ns1)c1ccc(F)cc1	500 nM	11 mL/min/kg	1400 nM	solubility thermodynamic [5]: < 27 µM
NC(=O)c1cccc(-c2ccc(NCC3(c4cnccn4)CCC3)nn2)c1	46100 nM	< 7 mL/min/kg		
CC(C)(CNc1cnc(-c2cccc(C(N)=O)c2)nc1)c1ccc(F)cc1	3600 nM			
CC(Cc1ccc(Cl)cc1)Nc1nc(Cc2ccc(F)cc2)ns1 (configuration not stated)	22100 nM			
CNC(=O)c1cccc(-c2cnc(NC[C@]3(c4ncccc4F)C[C@H](F)C3)nc2)c1	900 nM	< 7 mL/min/kg	500 nM	CL/F [13]: 52 mL/min/kg; Activity [6]: 31%; Vdss [14]: 2.6 L/kg; CLint scaled [7]: 14 mL/min/kg; Kp [15]: 0.53; fraction unbound [9]: 0.27; inhibition at 100 µM (hERG (KCNH2)): 42%; CLint scaled [10]: < 32 mL/min/kg; Kp [16]: 0.027; Ratio [17]: 1.15; Kp [18]: 0.54; efflux ratio [19]: 10
C#Cc1cnc2nc(O)n(C(CC)CC)c2n1 [TIRASEMTIV]				EC50 [20]: 6000 nM; Kp [15]: 0.3; fraction unbound [9]: 0.05; Kp [16]: 0.27; Ratio [17]: 1.62; efflux ratio [19]: 0.9
CN(CC1(c2ccccn2)CCC1)c1ccc(-c2cccc(C(N)=O)c2)nn1	> 49000 nM			
NC(=O)c1nccc(-c2ccc(NCC3(c4ncccc4F)CCC3)nn2)n1	> 49000 nM			
NC(=O)c1cccc(-c2ccc(NCC3(c4ncccc4F)CCC3)nn2)c1	300 nM	11 mL/min/kg	500 nM	
CC(C)(CNc1nsc(-c2cccc(C(N)=O)c2)n1)c1ccc(F)cc1	500 nM		7100 nM	
NC(=O)c1cc(-c2ccc(NCC3(c4ncccc4F)CCC3)nn2)ncn1	4400 nM			
NC(=O)c1ccn(-c2cnc(NCC3(c4ncccc4F)CCC3)nc2)c1	1300 nM	< 14 mL/min/kg	1400 nM	inhibition at 100 µM (hERG (KCNH2)): 43%
CC(C)(CNc1ccc(-c2cccc(C(N)=O)c2)nc1)c1ccc(F)cc1	300 nM			
CC(C)CCNc1nc(Cc2ccc(F)cc2)ns1	> 49000 nM			
CC(C)(CNc1ccc(-c2cccc(C(N)=O)c2)cn1)c1ccc(F)cc1	500 nM	7 mL/min/kg	1500 nM	
NC(=O)c1cccc(-c2ccc(NCC3(c4ccccn4)CCC3)nn2)c1	500 nM	< 7 mL/min/kg	900 nM	
NC(=O)c1cnn(-c2ccc(NCC3(c4ncccc4F)CC(F)(F)C3)nn2)c1	2600 nM		4000 nM	
